Results on two compounds are retold here after US10899628B2, “Cerium sulfate chelated sulfur dioxide, a preparation method and a use thereof” (South China Normal University, priority 2017, dated 2021).

The conditions of data set [1]: background statement, cited from earlier work.
Data set [2] is described as follows: solubility in water, aqueous DMSO and DMSO. It is filed as physicochemical.
Data set [3] can be described thus: thermogravimetric analysis (TGA). It is filed as physicochemical. As for the experimental part:
It is known from the TGA curve that the weight loss between 30.5° C. and 150° C. corresponds to the content of crystal water in the chelated molecules.

Like-named read-outs stand apart in the source and are kept apart here.

`O=S(=O)([O-])[O-].O=S(=O)([O-])[O-].[Ce+4]` [Anhydrous cerium sulfate, anhydrous cerium sulfate]: in data set [1] (acidic solution), the “solubility in a solution of a certain acidity” value was “highly soluble”. In addition, the solubility in water entry in data set [1] (water) is “not highly soluble”.
On to cerium sulfate chelated sulfur dioxide, for which the “solubility in DMSO” value in data set [2] (DMSO) is “insoluble”. Also, the “solubility in about 4% aqueous solution of DMSO” value in data set [2] (about 4% aqueous solution of dimethyl sulfoxide) is “soluble”. For the same compound, in data set [2] (water, standing for a period of time or heating under water bath of about 45 to 50° C.), the solubility in water entry is “forms an emulsion with water, and can dissolve after standing for a period of time or heating”. Also, the “weight loss (crystal water)” value in data set [3] (between 30.5° C. and 150° C.) came out at 11%. Also, the “product remained in the final residue (thermal stability)” value in data set [3] (final residue) is listed as 72.51%.
